The IC50 is the midpoint of a concentration-inhibition curve. Broadly, the melting point is the temperature, or range, at which the solid turns liquid.

Data set [1] has as its system HDACs (HeLa cell nuclear extracts). Description: HDAC enzymatic activity, Biomol Color de Lys system. It is filed as biochemical. The following applies: 1 hour, 25° C. An outline of the steps:
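IC50 from sigmoidal fit of developer-terminated fluorescence (ex 350-380/em 440-460 nm). Reaction: 1 h at room temperature (25 °C), HeLa nuclear extract as HDAC source, artificial substrate, buffer of 50 mM Tris/Cl pH 8.0 with 137 mM NaCl, 2.7 mM KCl and 1 mM MgCl2.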

A further data set addresses T1, PI3Kα (p110α/p85α) (Homo sapiens, UniProt P42336).
T1 construct: GST (N); made in house; host or cells: Baculovirus-infected Sf9 cells
The data set can be described thus: PI3Kα ADP-Glo assay. It is filed as biochemical. The following applies: 20 μM PIP2, 10 μM ATP, 30 minutes. An outline of the steps:
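Luminescent ADP-Glo detection, after depletion of residual ATP, quantified ADP made by PI3Kα phosphorylating 20 μM PIP2 at 10 μM ATP. The kinase step ran 30 min at room temperature in HEPES pH 7.4 with MgCl2, DTT and orthovanadate, using baculovirus/Sf9-expressed full-length p110α/p85α complex.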

In data set [2] the target is T2, mTor serine/threonine protein kinase (Homo sapiens, UniProt P42345).
T2 construct: FLAG; made in house; host or cells: Baculovirus expression system in Sf21 cells
The data set can be described thus: mTor kinase radioisotope assay. It is filed as biochemical. As to conditions: 70 uM ATP, 40 minutes; read-out: m-TOR IC50. The protocol: (F) an In Vitro Assay which-Determines the Ability of a Test Compound to Inhibit mTor Serine/Threonine Protein Kinase.
The ability of compounds to inhibit mTor activity was assayed using standard radioisotope assay for kinase. Briefly, FLAG-tagged, recombinant full-length human mTor (GenBank accession No. NM_004958) was expressed using baculovirus expression system in Sf21 cells and purified using antibody affinity column. Purified enzyme was incubated with c-terminal fragment of p70S6K as it's substrate in the presence of ATP. p33 ATP tracers were included in the assay to monitor the enzyme activity. Final assay condition was with 50 mM HEPES pH 7.5, 1 mM EGTA, 0.01% Tween 20, 2 mg/ml substrate, 3 mM Manganese Chloride and 70 uM of ATP and was carried out at room temperature for 40 minutes. The reaction was then stopped by the addition of 3% phosphoric acid solution. 10 ul of the reaction was spotted onto a P30 filtermat and washed three times for 5 minutes in 75 mM phosphoric acid and once in methanol prior to drying and scintillation counting. Different concentrations of compounds were added to reaction to assess the activity of compounds to inhibit mTor kinase. IC50 was calculated using Prism software with sigmoidal dose-response curve fitting.

T1 sequence (P42336 whole entry): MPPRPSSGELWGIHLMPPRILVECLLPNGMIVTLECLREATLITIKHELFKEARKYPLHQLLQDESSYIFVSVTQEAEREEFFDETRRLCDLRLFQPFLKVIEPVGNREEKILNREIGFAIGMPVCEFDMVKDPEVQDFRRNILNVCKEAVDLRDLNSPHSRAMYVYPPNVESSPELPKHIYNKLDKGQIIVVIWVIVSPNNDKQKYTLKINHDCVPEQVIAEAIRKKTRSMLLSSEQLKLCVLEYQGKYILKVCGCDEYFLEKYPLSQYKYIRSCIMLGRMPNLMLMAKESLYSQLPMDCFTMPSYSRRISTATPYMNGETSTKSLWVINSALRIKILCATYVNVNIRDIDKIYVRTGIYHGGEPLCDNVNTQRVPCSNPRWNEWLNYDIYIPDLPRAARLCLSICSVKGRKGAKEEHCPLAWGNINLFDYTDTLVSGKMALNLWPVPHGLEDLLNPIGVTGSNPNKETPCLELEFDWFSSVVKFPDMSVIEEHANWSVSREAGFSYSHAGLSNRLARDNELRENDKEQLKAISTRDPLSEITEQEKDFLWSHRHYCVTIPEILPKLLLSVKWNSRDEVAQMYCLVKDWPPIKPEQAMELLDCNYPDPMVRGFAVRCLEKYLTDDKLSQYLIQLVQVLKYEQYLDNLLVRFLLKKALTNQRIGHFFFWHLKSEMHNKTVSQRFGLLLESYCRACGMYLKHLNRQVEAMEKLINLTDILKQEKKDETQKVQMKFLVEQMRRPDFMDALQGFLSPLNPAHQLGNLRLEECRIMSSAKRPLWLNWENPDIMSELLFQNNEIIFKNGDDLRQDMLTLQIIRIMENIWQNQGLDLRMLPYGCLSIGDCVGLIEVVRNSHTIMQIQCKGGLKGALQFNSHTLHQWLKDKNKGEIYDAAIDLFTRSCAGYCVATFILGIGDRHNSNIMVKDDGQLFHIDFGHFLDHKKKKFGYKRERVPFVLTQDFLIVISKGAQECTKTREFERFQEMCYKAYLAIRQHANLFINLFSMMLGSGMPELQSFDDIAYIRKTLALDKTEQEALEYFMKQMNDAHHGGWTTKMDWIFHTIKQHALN
T1 sequence (P27986 whole entry partner): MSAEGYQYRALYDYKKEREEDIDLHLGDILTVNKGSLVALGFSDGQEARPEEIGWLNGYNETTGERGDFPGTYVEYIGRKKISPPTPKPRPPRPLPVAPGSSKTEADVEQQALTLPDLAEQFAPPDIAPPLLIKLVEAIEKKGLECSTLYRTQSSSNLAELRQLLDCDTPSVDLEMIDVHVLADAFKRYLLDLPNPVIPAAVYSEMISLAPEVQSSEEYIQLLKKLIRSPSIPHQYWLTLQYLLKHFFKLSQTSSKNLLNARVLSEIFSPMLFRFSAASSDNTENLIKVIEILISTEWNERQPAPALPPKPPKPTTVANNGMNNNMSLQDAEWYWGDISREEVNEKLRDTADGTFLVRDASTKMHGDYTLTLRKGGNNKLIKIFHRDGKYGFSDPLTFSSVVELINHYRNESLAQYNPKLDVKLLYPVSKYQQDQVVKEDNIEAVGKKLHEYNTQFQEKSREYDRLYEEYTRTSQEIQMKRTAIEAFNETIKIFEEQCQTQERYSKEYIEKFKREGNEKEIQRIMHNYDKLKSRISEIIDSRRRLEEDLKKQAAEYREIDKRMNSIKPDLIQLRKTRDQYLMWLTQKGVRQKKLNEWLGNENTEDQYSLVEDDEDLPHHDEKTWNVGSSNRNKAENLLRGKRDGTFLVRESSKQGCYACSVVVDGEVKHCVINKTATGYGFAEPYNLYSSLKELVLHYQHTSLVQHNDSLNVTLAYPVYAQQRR

Compound `O=C(NO)c1cnc(N2CCC(CNCc3cc4nc(-c5cccc6[nH]ncc56)nc(N5CCOCC5)c4s3)CC2)nc1` [Compound 15, 2-(4-(((2-(1H-indazol-4-yl)-4-morpholinothieno[3,2-d]pyrimidin-6-yl)methylamino)methyl)piperidin-1-yl)-N-hydroxypyrimidine-5-carboxamide] came in with a melting point of 170 to 172 °C. In data set [1], the IC50 was < 100 nM. The compound also displayed an IC50 against PI3Kα (p110α/p85α) of 100 to 1000 nM. Also, the IC50 in data set [2] is > 10000 nM.
In the same order, the values of `CN(Cc1cc2nc(-c3cccc4[nH]ncc34)nc(N3CCOCC3)c2s1)CC1CCN(c2ncc(C(=O)NO)cn2)CC1` [Compound 16, 2-(4-((((2-(1H-indazol-4-yl)-4-morpholinothieno[3,2-d]pyrimidin-6-yl)methyl)(methyl)amino)methyl)piperidin-1-yl)-N-hydroxypyrimidine-5-carboxamide] are 174 to 175 °C, 100 to 1000 nM, < 100 nM and 1000 to 10000 nM.
In the same order, the values of `O=C(CCCCCNCc1cc2nc(-c3cccc4[nH]ncc34)nc(N3CCOCC3)c2s1)NO` [Compound 43, 6-((2-(1H-indazol-4-yl)-4-morpholinothieno[3,2-d]pyrimidin-6-yl)methylamino)-N-hydroxyhexanamide] are 128 to 130 °C, < 100 nM, 1000 to 10000 nM and 1000 to 10000 nM.
Take `CN(Cc1cc2nc(-c3cc(F)cc4[nH]ncc34)nc(N3CCOCC3)c2s1)c1ncc(C(=O)NO)cn1` [Compound 69, 2-(((2-(6-fluoro-1H-indazol-4-yl)-4-morpholinothieno[3,2-d]pyrimidin-6-yl)methyl)(methyl)amino)-N-hydroxypyrimidine-5-carboxamide]: the melting point was in the range of 215 to 217 °C. Also, the half-inhibitory concentration (IC50) in data set [1] was < 100 nM. In addition, on PI3Kα (p110α/p85α), the IC50 is < 100 nM. In addition, the IC50 in data set [2] lay in the range of 1000 to 10000 nM.
The compound `CN(CCCC(=O)NO)Cc1cc2nc(-c3cccc4[nH]ncc34)nc(N3CCOCC3)c2s1` [Compound 101, 4-(((2-(1H-indazol-4-yl)-4-morpholinothieno[3,2-d]pyrimidin-6-yl)methyl)(methyl)amino)-N-hydroxybutanamide] displayed a melting point of 115 to 118 °C. In data set [1], the half-maximal inhibitory concentration (IC50) was > 10000 nM. At PI3Kα (p110α/p85α), this compound gave an IC50 of 100 to 1000 nM. The IC50 in data set [2] was in the range of 100 to 1000 nM.
Compound `CN(CCCCC(=O)NO)Cc1cc2nc(-c3cccc4[nH]ncc34)nc(N3CCOCC3)c2s1` [Compound 102, 5-(((2-(1H-indazol-4-yl)-4-morpholinothieno[3,2-d]pyrimidin-6-yl)methyl)(methyl)amino)-N-hydroxypentanamide] showed a melting point of 120 to 122 °C. The compound also returned an IC50 in data set [1] of 100 to 1000 nM. Besides, the IC50 on PI3Kα (p110α/p85α) lay within 100 to 1000 nM. Also, the IC50 in data set [2] was 100 to 1000 nM.
In turn, `CN(Cc1cc2nc(-c3cccnc3)nc(N3CCOCC3)c2s1)c1ncc(C(=O)NO)cn1` [Compound 109, N-hydroxy-2-(methyl((4-morpholino-2-(pyridin-3-yl)thieno[3,2-d]pyrimidin-6-yl)methyl)amino)pyrimidine-5-carboxamide] yielded a melting point of 160 to 164 °C. The IC50 in data set [1] was < 100 nM. The IC50 against PI3Kα (p110α/p85α) is < 100 nM. The IC50 in data set [2] is 100 to 1000 nM.
For the compound `CN(C)c1ncc(-c2nc(N3CCOCC3)c3sc(CN(C)c4ncc(C(=O)NO)cn4)cc3n2)cn1` [Compound 117, 2-(((2-(2-(dimethylamino)pyrimidin-5-yl)-4-morpholinothieno[3,2-d]pyrimidin-6-yl)methyl)(methyl)amino)-N-hydroxypyrimidine-5-carboxamide], the melting point is 200 to 206 °C. The IC50 in data set [1] is < 100 nM. On PI3Kα (p110α/p85α), the IC50 is < 100 nM. Besides, the IC50 in data set [2] was in the range of 1000 to 10000 nM.
The compound `CC(=O)NCc1ccc(-c2nc(N3CCOCC3)c3sc(CN(C)c4ncc(C(=O)NO)cn4)cc3n2)cc1` [Compound 136, 2-(((2-(4-(acetamidomethyl)phenyl)-4-morpholinothieno[3,2-d]pyrimidin-6-yl)methyl)(methyl)amino)-N-hydroxypyrimidine-5-carboxamide] had a melting point of 178 to 180 °C. For the same compound, the IC50 on PI3Kα (p110α/p85α) is > 10000 nM. Moreover, the IC50 in data set [2] was > 10000 nM.
On to `CN(Cc1cc2nc(-c3cccc(C(N)=O)c3)nc(N3CCOCC3)c2s1)c1ncc(C(=O)NO)cn1` [Compound 142, 2-(((2-(3-carbamoylphenyl)-4-morpholinothieno[3,2-d]pyrimidin-6-yl)methyl)(methyl)amino)-N-hydroxypyrimidine-5-carboxamide], for which the IC50 in data set [1] is < 100 nM; against PI3Kα (p110α/p85α) it was 100 to 1000 nM; in data set [2] it was 100 to 1000 nM.
Turning to `CN(Cc1cc2nc(-c3cccc4c3CC(=O)N4)nc(N3CCOCC3)c2s1)c1ncc(C(=O)NO)cn1` [Compound 178], the 50% inhibitory concentration (IC50) was < 100 nM in data set [1], > 10000 nM on PI3Kα (p110α/p85α) and > 10000 nM in data set [2].
As for `CN(Cc1cc2nc(-c3cccc4c3CNC4=O)nc(N3CCOCC3)c2s1)c1ncc(C(=O)NO)cn1` [Compound 181], the IC50 in data set [1] was < 100 nM; against PI3Kα (p110α/p85α), 1000 to 10000 nM; in data set [2] it was > 10000 nM.
In the same order, the values of `CN(Cc1cc2nc(-c3ccc4c(c3)NC(=O)CO4)nc(N3CCOCC3)c2s1)c1ncc(C(=O)NO)cn1` [Compound 183] are < 100 nM, > 10000 nM and > 10000 nM.
In the same order, the values of `CN(Cc1cc2nc(-c3c[nH]c4ccccc34)nc(N3CCOCC3)c2s1)c1ncc(C(=O)NO)cn1` [Compound 184] are < 100 nM, 1000 to 10000 nM and 100 to 1000 nM.
Turning to `COc1ccc(-c2nc(N3CCOCC3)c3sc(CN(CCO)c4ncc(C(=O)NO)cn4)cc3n2)cn1` [Compound 265], the IC50 is < 100 nM in data set [1], < 100 nM on PI3Kα (p110α/p85α) and > 10000 nM in data set [2].
On to `Nc1ccc(-c2nc(N3CCOCC3)c3sc(CN(CCO)c4ncc(C(=O)NO)cn4)cc3n2)cc1` [Compound 274], for which the IC50 in data set [1] is < 100 nM; against PI3Kα (p110α/p85α), < 100 nM; in data set [2], 100 to 1000 nM.
Consider `CN(Cc1cc2nc(-c3ccc([N+](=O)[O-])c(O)c3)nc(N3CCOCC3)c2s1)c1ncc(C(=O)NO)cn1` [Compound 293, N-Hydroxy-2-(((2-(3-hydroxy-4-nitrophenyl)-4-morpholinothieno[3,2-d]pyrimidin-6-yl)methyl)(methyl)amino)pyrimidine-5-carboxamide], for which the IC50 in data set [1] is < 100 nM; against PI3Kα (p110α/p85α), < 100 nM; in data set [2] it was > 10000 nM.
Take `CC(=O)c1ccc(F)c(-c2nc(N3CCOCC3)c3sc(CN(C)c4ncc(C(=O)NO)cn4)cc3n2)c1` [Compound 301]: the figures for the IC50 (in data set [1]; on PI3Kα (p110α/p85α); in data set [2]) were < 100 nM, 1000 to 10000 nM and > 10000 nM, respectively.
The corresponding values for `Cc1ncc(-c2nc(N3CCOCC3)c3sc(CN(C)c4ncc(C(=O)NO)cn4)cc3n2)s1` [Compound 311] are < 100 nM, 100 to 1000 nM and > 10000 nM.
The corresponding values for `Cn1cc(-c2nc(N3CCOCC3)c3sc(CN(CCO)c4ncc(C(=O)NO)cn4)cc3n2)cn1` [Compound 313] are < 100 nM, 100 to 1000 nM and > 10000 nM.
The corresponding values for `CN(Cc1cc2nc(-c3cccc4[nH]c(=O)[nH]c34)nc(N3CCOCC3)c2s1)c1ncc(C(=O)NO)cn1` [Compound 314] are < 100 nM, 100 to 1000 nM and > 10000 nM.

The values are drawn from patent US20130102595A1 (Curis, Inc., priority 2011, published 2013).
